According to article PMC6767256, “Leishmania mexicana Trypanothione Reductase Inhibitors: Computational and Biological Studies” (Molecules, 2019):
Where two headings read alike, the source gives them in different places.

Assays:
[1] = tested on: L. mexicana promastigotes strain MNYC/BZ/62/M379; assay: Activity against L. mexicana promastigotes (resazurin method); details: for SI (selectivity index): SI = CC50/IC50 (J774.2 / L. mexicana promastigotes)
Experimental: After incubation for 48 h at 26 °C, 20 µL of 2.5 mM resazurin solution was added to each well and incubated for 4 h. […] All assays were carried out in triplicate. The half-maximal inhibitory concentration (IC50) was determined by Probit analysis.

[2] = in vitro; details: mouse
Experimental: The cytotoxicity of the five selected compounds was tested using murine macrophage cell line J774.2 (ATCC ®TIB-67). […] For this, macrophages were seeded (5 × 10^4 cells/well) in 96-well flat-bottomed microplates and allowed to adhere for 24 h at 37 °C in 5% CO2. […] Thereafter, 20 µL of a 2.5 mM resazurin solution was added to each well, and the plates were incubated for another 4 h. The fluorescence emission was measured as described above. The half-maximal cytotoxicity concentration (CC50) was determined by Probit analysis.

[3] = tested on: rLmTR; assay: Kinetic characterization of rLmTR with substrate T[S]2; format: biochemical, Leishmania mexicana; details: T[S]2 as substrate, 150 µM NADPH
Experimental: (§1) The enzymatic activity of rLmTR was assayed spectrophotometrically as previously described. The reaction mixture contained 40 mM Hepes, pH 7.5, 1 mM EDTA, 150 µM NADPH, and 30 ng rLmTR. The reaction was initiated by adding the substrate (T[S]2) at 400 µM and was allowed to proceed for 1 min. NADPH oxidation was followed at 340 nm, monitored every 20 s, in a Synergy™ H1 microplate reader (Biotek Instruments, Inc. Winooski, VT, USA). The decrease in the absorbance at 340 nm was used to determine the moles of substrate consumed. One unit of enzyme activity is defined as the amount of enzyme required to convert 1 μmol of NADPH to NADP per minute at 25 °C [42].
The kinetic data were analyzed by linear regression fit to Michaelis–Menten kinetics and linearized by the double reciprocal transformation of Lineweaver and Burk.

[4] = tested on: recombinant LmTR (rLmTR); assay: Inhibition of rLmTR activity (NADPH oxidation at 340 nm); format: biochemical, Leishmania mexicana; details: 10% DMSO
Experimental: as §1
(§2) Compounds ZINC04684558, ZINC09642432, ZINC12151998, ZINC14970552, and ZINC11841871 with affinity to the LmTR catalytic site with docking scores of at most −5.29 kcal/mol were selected to evaluate their in vitro inhibition of rLmTR activity. […] The assay was carried out following the conditions previously described to determine the rLmTR activity. The percentage of inhibition was obtained using the following equation:(1) % Inhibition=[…] where A0 is the enzyme activity without inhibitor and A1 is the enzyme activity in the presence of inhibitor.

[5] = Solubility in the enzyme assay (observation); format: physicochemical; details: prevented testing at higher concentration in the rLmTR assay
Experimental: as §2

[6] = Leishmania mexicana, 48 h, read-out: IC50 (leishmanicidal activity), L. mexicana promastigotes, 48 h at 26 °C

For `C[C@@H]1[C@H](O)[C@@H](C)/C=C/C=C/C=C/C=C/C=C/C=C/C=C/[C@H](O[C@@H]2O[C@H](C)[C@@H](O)[C@H](N)[C@@H]2O)C[C@@H]2O[C@](O)(C[C@@H](O)C[C@@H](O)[C@H](O)CC[C@@H](O)C[C@@H](O)CC(=O)O[C@H]1C)C[C@H](O)[C@H]2C(=O)O` [Amphotericin B, reference compound], the IC50 [1, 6] was 0.11 µM, the “SI (selectivity index)” value [1] was 67 and the CC50 at 24 h [2] was 7.4 µM.

With `CCCCCCCCCCCCCCCCOP(=O)([O-])OCC[N+](C)(C)C` [Miltefosine, reference compound] the IC50 [1, 6] was 2.98 µM, the “SI (selectivity index)” value [1] was 47 and the CC50 at 24 h [2] was 141 µM.

For `N[C@@H](CCC(=O)N[C@H]1CSSC[C@H](NC(=O)CC[C@H](N)C(=O)O)C(=O)NCC(=O)NCCCNCCCCNC(=O)CNC1=O)C(=O)O` [T[S]2, trypanothione disulfide], the Km [3] was 173 µM.

In the case of `Cc1nnc(N2CCN(C(=O)Nc3ccc(F)cc3F)CC2)c2nn(-c3ccccc3)c(C)c12` [ZINC09642432], the IC50 [1, 6] is reported as over 200 µM, the “SI (selectivity index)” value [1] is reported as 1.5 and the IC50 ([1]; read-out: IC50 (leishmanicidal activity), L. mexicana promastigotes, 48 h at 26 °C) is reported as 222 µM. For the same compound, the CC50 at 24 h ([2]; J774.2 macrophage cell line) was 335 µM and the “% Inhibition of rLmTR activity” value ([4]; compound at 300 µM) was 40.1%.

In the case of `CC(=O)N[C@@H]1c2ccccc2C2(CCN(C(=O)c3n[nH]c4ccccc34)CC2)[C@H]1OCc1ccccc1` [ZINC11841871], the Solubility [5] is reported as “poor solubility”, the IC50 [1, 6] is reported as 159 µM and the “SI (selectivity index)” value [1] is reported as 0.6. For the same compound, the CC50 at 24 h ([2]; J774.2 macrophage cell line) was 103 µM and the “% Inhibition of rLmTR activity” value ([4]; compound at 150 µM) was 39.5%.

With `O=C(NCc1ccc2ncccc2c1)c1cnn(-c2ncc3c(n2)-c2ccccc2CCC3)c1C1CC1` [ZINC12151998] the Solubility [5] was “poor solubility”, the IC50 [1, 6] was 58 µM and the “SI (selectivity index)” value [1] was 0.9. For the same compound, the CC50 at 24 h ([2]; J774.2 macrophage cell line) was 53 µM and the “% Inhibition of rLmTR activity” value ([4]; compound at 100 µM) was 32.9%.

In the case of `CC1(C)C[C@H](NC(=O)c2cnn(-c3ncc4c(n3)-c3ccccc3CC4)c2C2CC2)CCO1` [ZINC14970552], the IC50 [1, 6] is reported as 147 µM, the “SI (selectivity index)” value [1] is reported as 1.4 and the CC50 at 24 h ([2]; J774.2 macrophage cell line) is reported as 219 µM. For the same compound, the “% Inhibition of rLmTR activity” value ([4]; compound at 300 µM) was 35.7%.
